Values quoted from earlier work in US10881492B2, “Oral care compositions and regimens” (The Procter & Gamble Company, priority 2014, dated 2021).

Details: concentration level where the cooling effect can be clearly recognized

| SMILES | cooling threshold |
| --- | --- |
| CC(C)[C@@H]1CC[C@@H](C)C[C@@H]1O [d-neomenthol] | about 25,000 ppb |
| CC(C)[C@@H]1CC[C@@H](C)C[C@@H]1O [Example 1-neomenthol, 1-neomenthol] | about 3,000 ppb |
| CC(C)[C@@H]1CC[C@@H](C)C[C@H]1O [L-menthol] | about 800 ppb |
